Test system: light responsive excitatory opsin protein ChR2 delivered virally via AAV and expressed in the sensory nerve of a mouse
Assay: Light-responsiveness over time after AAV delivery of ChR2 to the sensory nerve, immunosuppressant paradigms versus saline (FIG. 2A-2I)
Type: in vivo
Details: drug paradigm and schedule as in FIG. 1; light approx. 450 nm
Excerpt: Referring to FIG. 1, various drug groupings are listed (2) which have been known to modulate the immune system, including cyclosporine (“Cyc”), cyclosporine+mycophenolate mofetil (“MMF”), dexamethasone, rapamycin in various dosage configurations, rapamycin+dexamethasone+FK506 (also known as “tacrolimus”; an immunosuppressive drug used mainly after organ transplant to lower rejection risk), and metformin (a medication utilized in treating diabetes and polycystic ovary syndrome which also has been inculcated in immune suppression). Each of these listed drugs has previously been approved by the U.S. F.D.A. for different indications, and the depicted drug schedules associated with each grouping feature dosing and scheduling information that previously has been published in different treatment paradigms, such as for cardiovascular or transplant rejection scenarios.
Thus, referring again to the table (2) of FIG. 1, for cyclosporine, a subcutaneous (or “subQ” or “SQ”) regime is listed, wherein cyclosporine is injected subcutaneously for one week prior to injection of genetic material, and then every two days after, as is a cyclosporine+MMF combination (noted as “Cyc+MMF”) which has been used with success, for example, in clinical trials with adeno associated virus (“AAV”) gene therapies; the term “I.P.” or “i.p.” refers to intraperitoneal injection. […]

## CN(C)C(=N)N=C(N)N [metformin]
  effect on proportion of animals still exhibiting light-responsiveness versus saline: does not seem to have a significant impact

— US20190275169A1, “TARGETED IMMUNOSUPPRESSION FOR OPTOGENETIC INTERVENTION” (Circuit Therapeutics, Inc., priority 2018, published 2019)
